This note sets out measurements from ChEMBL document CHEMBL1145549, “Constrained NBMPR analogue synthesis, pharmacophore mapping and 3D-QSAR modeling of equilibrative nucleoside transporter 1 (ENT1) inhibitory activity” (Bioorg Med Chem, 2008).

In one test the target is T1, Equilibrative nucleoside transporter 1 (Homo sapiens, UniProt Q99808).
T1 sequence (Q99808 whole entry): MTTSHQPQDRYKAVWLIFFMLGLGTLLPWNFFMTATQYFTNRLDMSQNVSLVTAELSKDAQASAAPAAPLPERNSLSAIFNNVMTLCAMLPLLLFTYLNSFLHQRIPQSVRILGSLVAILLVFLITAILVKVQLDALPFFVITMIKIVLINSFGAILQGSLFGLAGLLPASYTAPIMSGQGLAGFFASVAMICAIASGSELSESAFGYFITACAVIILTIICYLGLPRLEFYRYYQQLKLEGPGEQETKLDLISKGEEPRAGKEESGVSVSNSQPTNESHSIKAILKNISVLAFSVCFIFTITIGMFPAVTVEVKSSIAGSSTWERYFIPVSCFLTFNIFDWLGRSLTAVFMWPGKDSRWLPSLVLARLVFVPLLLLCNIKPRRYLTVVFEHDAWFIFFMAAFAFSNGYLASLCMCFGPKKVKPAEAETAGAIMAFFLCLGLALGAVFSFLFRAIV
Briefly: Binding affinity to ENT1 transporter.
Consider `O=[N+]([O-])c1cccc2c1CN(c1ncnc3c1nc1n3[C@@H]3O[C@H](CO1)[C@@H](O)[C@H]3O)CC2`, for which the IC50 is 1740 µM.

The molecule `O=[N+]([O-])c1ccc2c(c1)CN(c1ncnc3c1nc1n3[C@@H]3O[C@H](CO1)[C@@H](O)[C@H]3O)CC2` gave an IC50 of 0.331 µM.

For the molecule `O=[N+]([O-])c1cccc2c1CCN(c1ncnc3c1nc1n3[C@@H]3O[C@H](CO1)[C@@H](O)[C@H]3O)C2`, the IC50 is 7410 µM. This IC50 is about 22000-fold higher than that of the molecule before. Same read-out and setting: then `Nc1nc(SCc2cccc(Br)c2)c2ncn([C@@H]3O[C@H](CO)[C@@H](O)[C@H]3O)c2n1`, with 2.88 µM; and `OC[C@H]1O[C@@H](n2cnc3c(CSc4cccc(F)c4)ncnc32)[C@H](O)[C@@H]1O`, with 0.2 µM. In the case of `Cc1cccc(CSc2nc(N)nc3c2ncn3[C@@H]2O[C@H](CO)[C@@H](O)[C@H]2O)n1`, the IC50 is 11500 µM. Take `CC(C)CSc1nc(N)nc2c1ncn2[C@@H]1O[C@H](CO)[C@@H](O)[C@H]1O`: the IC50 was 8.71 µM. With `Cc1ccc([N+](=O)[O-])c(CNc2ncnc3c2ncn3[C@@H]2O[C@H](CO)[C@@H](O)[C@H]2O)c1`, the IC50 is 1.29 µM. `O=[N+]([O-])c1ccc2c(c1)CCN(c1ncnc3c1nc1n3[C@@H]3O[C@H](CO1)[C@@H](O)[C@H]3O)C2` had an IC50 of 245 µM. Compared with the last molecule, the IC50 is about 190-fold higher. As to `Nc1nc(SCc2ccccc2)c2ncn([C@@H]3O[C@H](CO)[C@@H](O)[C@H]3O)c2n1`, the IC50 is 5.25 µM. Against the preceding molecule, the IC50 is about 47-fold lower.

The molecule `Nc1nc(SCc2ccccc2[N+](=O)[O-])c2ncn([C@@H]3O[C@H](CO)[C@@H](O)[C@H]3O)c2n1` showed an IC50 of 4.57 µM. This IC50 and that of the molecule before are within 1.5-fold of each other.

`O=[N+]([O-])c1cc(Cl)ccc1CNc1ncnc2c1ncn2[C@@H]1O[C@H](CO)[C@@H](O)[C@H]1O`: the IC50 was 46.8 µM. `Cc1cc(C)c(SCc2ncnc3c2ncn3[C@@H]2O[C@H](CO)[C@@H](O)[C@H]2O)c(C)c1` gave an IC50 of 33.1 µM. `O=[N+]([O-])c1ccc(CNc2ncnc3c2ncn3[C@@H]2O[C@H](CO)[C@@H](O)[C@@H]2O)cc1` gave an IC50 of 0.0316 µM. Compared with the last molecule, the IC50 is about 1000-fold lower. Regarding `O=[N+]([O-])c1ccc(CNc2ncnc3c2ncn3[C@@H]2O[C@H](CO)[C@@H](O)[C@H]2O)cc1`, the IC50 was 0.0275 µM. The molecule `OC[C@H]1O[C@@H](n2cnc3c(NCc4cccs4)ncnc32)[C@H](O)[C@@H]1O` gave an IC50 of 17.8 µM. Same read-out and setting: next, `O=[N+]([O-])c1cc(CNc2ncnc3c2ncn3[C@@H]2O[C@H](CO)[C@@H](O)[C@H]2O)ccc1Cl`: 0.708 µM; `Nc1nc(SCc2ccc(F)cc2)c2ncn([C@@H]3O[C@H](CO)[C@@H](O)[C@H]3O)c2n1`: 1.15 µM; `CSc1ncnc2c1ncn2[C@@H]1O[C@H](CO)[C@@H](O)[C@H]1O`: 229 µM.

Turning to `COc1cccc(CNc2ncnc3c2ncn3[C@@H]2O[C@H](CO)[C@@H](O)[C@H]2O)c1`, the IC50 is 115 µM. Compared with the last molecule, the IC50 is about 2-fold lower. Same read-out and setting: then `CC(=O)Nc1ccc(CNc2ncnc3c2ncn3[C@@H]2O[C@H](CO)[C@@H](O)[C@H]2O)cc1`, with 0.182 µM. On to `N#Cc1ccc(SCc2ncnc3c2ncn3[C@@H]2O[C@H](CO)[C@@H](O)[C@H]2O)cc1`, for which the IC50 is 0.0813 µM. Regarding `OC[C@H]1O[C@@H](n2cnc3c(CSc4ccc(Cl)c(Cl)c4)ncnc32)[C@H](O)[C@@H]1O`, the IC50 is 0.224 µM.

With `Nc1nc(SCc2ccccc2F)c2ncn([C@@H]3O[C@H](CO)[C@@H](O)[C@H]3O)c2n1`, the IC50 was 4.79 µM. This IC50 lies about 21-fold higher than the previous one.

Regarding `CC(C)Nc1ncnc2c1ncn2[C@@H]1O[C@H](CO)[C@@H](O)[C@H]1O`, the IC50 is 257 µM. Against the preceding molecule, the IC50 is about 54-fold higher. Same read-out and setting: next, `OC[C@H]1O[C@@H](n2cnc3c(CSc4c(F)cccc4Cl)ncnc32)[C@H](O)[C@@H]1O`: 1.51 µM. `O=[N+]([O-])c1cccc(SCc2ncnc3c2ncn3[C@@H]2O[C@H](CO)[C@@H](O)[C@H]2O)c1`: the IC50 is 0.00479 µM.

`Cc1ccc(CSc2ncnc3c2ncn3[C@@H]2O[C@H](CO)[C@@H](O)[C@H]2O)cc1` gave an IC50 of 0.457 µM.

Turning to `O=[N+]([O-])c1ccc(CNc2ncnc3c2ncn3[C@@H]2O[C@H](CCl)[C@@H](O)[C@H]2O)cc1`, the IC50 is 0.107 µM. `Nc1nc(SCc2ccc([N+](=O)[O-])cc2)c2ncn([C@@H]3O[C@H](CO)[C@@H](O)[C@H]3O)c2n1` showed an IC50 of 0.0214 µM.

For `CC(C)(Sc1ncnc2c1ncn2[C@@H]1O[C@H](CO)[C@@H](O)[C@H]1O)c1ccccc1`, the IC50 is 21.4 µM. Compared with the last molecule, the IC50 is about 1000-fold higher. `OC[C@H]1O[C@@H](n2cnc3c(CSc4ccccc4F)ncnc32)[C@H](O)[C@@H]1O` showed an IC50 of 0.355 µM. This IC50 is about 60-fold lower than that of the molecule before. The same measure, in the same setting: then `CC(C)(C)c1ccc(SCc2ncnc3c2ncn3[C@@H]2O[C@H](CO)[C@@H](O)[C@H]2O)cc1`, with 331 µM. Still for that read-out and setting: then `OC[C@H]1O[C@@H](n2cnc3c(SCC4CCCCC4)ncnc32)[C@H](O)[C@@H]1O`, with 1.55 µM; and `OC[C@H]1O[C@@H](n2cnc3c(CSc4cccc(I)c4)ncnc32)[C@H](O)[C@@H]1O`, with 0.245 µM; and `O=[N+]([O-])c1ccc(CNc2ncnc3c2ncn3[C@H]2C[C@H](O)[C@@H](CO)O2)cc1`, with 0.0158 µM.

The target in a further test is T1, Equilibrative nucleoside transporter 1. In words: Displacement of 5-(SAENTA)-X8-fluorescein from human ENT1 transporter in human K562 cells. The format is cell-based.
Regarding `O=[N+]([O-])c1cccc2c1CN(c1ncnc3c1nc1n3[C@@H]3O[C@H](CO1)[C@@H](O)[C@H]3O)CC2`, the Ki is > 1 µM. Still for that read-out and setting: then `O=[N+]([O-])c1ccc2c(c1)CN(c1ncnc3c1nc1n3[C@@H]3O[C@H](CO1)[C@@H](O)[C@H]3O)CC2`, with 0.0189 µM; and `O=[N+]([O-])c1cccc2c1CCN(c1ncnc3c1nc1n3[C@@H]3O[C@H](CO1)[C@@H](O)[C@H]3O)C2`, with > 1 µM; and `O=[N+]([O-])c1ccc2c(c1)CCN(c1ncnc3c1nc1n3[C@@H]3O[C@H](CO1)[C@@H](O)[C@H]3O)C2`, with > 1 µM.

The IC50 is the point on the concentration scale where inhibition reaches its midpoint. A higher IC50 goes with weaker potency in that assay. Usually Ki stands for the equilibrium dissociation constant of an inhibitor or competing ligand from its target. Lower therefore signals a stronger hold on the target.
